PubChem BioAssay AID1963870 (Molecular Pharmacology Branch, DTP, NCI, 2024)

System: 292921-168-R-J2-PDC KRAS tumor spheroid viability
Assay: Anticancer human tumor 292921-168-R-J2-PDC patient-derived pancreatic carcinoma cell line growth inhibition [KRAS2]
Details: spheroids with HUVEC and MSC; for viability, T/C: stronger effect = lower value
Text: Multicellular complex tumor spheroid response to RAS pathway inhibitors in combination with a targeted agents in patient-derived cell lines with oncogenic KRAS variants from multiple cancer types
A high-throughput screen of multi-cell type tumor spheroids was designed to identify active combinations of targeted small molecules and KRAS pathway inhibitors. Complex spheroids include a stromal component modeled by human endothelial cells (HUVEC) and fibroblasts modeled by human mesenchymal stem cells (MSCs). The concentration ranges selected for each drug and investigational agent were based upon clinically achievable concentrations if the clinical Cmax of the agent was known.
Compounds. The drugs and investigational agents: BI-3406 (NSC825286), BAY-293 (NSC824723), batoprotafib (TNO155; NSC825523), sotorasib (AMG 510; NSC818433), MRTX1257 (NSC819558), elimusertib (BAY 1895344; NSC800525), molibresib (GSK525762; NSC774829), temuterkib (LY3214996; NSC803410), venetoclax (NSC766270), alisertib (NSC759677), olaparib (NSC753686), talazoparib (NSC767125), erdafitinib (NSC781556), ipatasertib (NSC767898), cabozantinib (NSC761068), nintedanib (NSC756659), abemaciclib (NSC768073), docetaxel (NSC628503), trametinib (NSC758246), and sapanisertib (NSC764658) were obtained from the National Cancer Institute (NCI) Developmental Therapeutics Program Chemical Repository. The FDA-approved anticancer drug set is available from the Developmental Therapeutics Program. […] The stock solutions were prepared in dimethyl sulfoxide (DMSO, Sigma-Aldrich, St. Louis, MO, cat. D2650) at 800-fold the tested concentration and stored at -70 degrees C prior to their use. All drugs and investigational agents were tested over a range starting from a high concentration at or near the clinical Cmax and decreasing in half-log increments. If the clinical Cmax for an agent had not been determined, the highest concentration tested was 10 microM.
Cell Culture. All cells were maintained in an incubator at 37 degrees C and 5% CO2 with 95% humidity. The PDC lines were cultured according to standard operating procedures established by the NCI PDMR (https://pdmr.cancer.gov/sops/default.htm). Briefly, all PDCs were thawed and cultured in Matrigel-coated flasks prepared with a working solution of 1X Ham's F-12 nutrient mix, without supplementation (Invitrogen, Waltham, MA, cat. 11765054), 100 U/mL penicillin-streptomycin (Invitrogen, cat. 15140122), and 2.5% Matrigel (Corning Inc., Corning, NY, cat. 354248) for the first three passages. All PDCs were cultured in complete DMEM/F-12 media containing advanced DMEM/F-12 (Invitrogen, cat. 12634028), 4.9% defined fetal bovine serum, heat inactivated (HyClone Laboratories Inc., Logan, UT, cat. SH30070.03HI), 389 ng/mL hydrocortisone (Sigma-Aldrich, cat. H4001), 9.7 ng/mL human EGF recombinant protein (Invitrogen, cat. PHG0313), 23.4 microg/mL adenine (Sigma-Aldrich, cat. A2786), 97.3 U/mL penicillin-streptomycin (Invitrogen, cat. 15140122), 1.9 mM L-glutamine (Invitrogen, cat. 25030081), and 9.7 microM Y-27632 dihydrochloride (Tocris Bioscience, Bristol, United Kingdom, cat. 1254). The PDCs were cultured in complete DMEM/F12 media without 9.7 microM Y-27632 dihydrochloride for at least two passages prior to the screen. The established cell line HOP-62 was cultured in RPMI 1640 medium, HEPES (Invitrogen, cat. 22400105) with 10% defined fetal bovine serum (HyClone Laboratories Inc., cat. SH30070.03) and 2 mM L-glutamine (Invitrogen, cat. 25030081). The pooled donor HUVEC were cultured in endothelial cell growth medium 2 (PromoCell, Heidelberg, Germany, cat. C-22011) and the hMSC were cultured in mesenchymal stem cell growth medium 2 (PromoCell, cat. C-28009). For all experiments, HUVEC and hMSC were used at passages </=5, while the malignant cell lines were used at passages </=15. […]
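Further: drug exposure lasted seven days after spheroids formed for three days.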
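Wherever viability, T/C is given: percent of DMSO vehicle control viability which is 100%.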

CC(=O)Nc1cccc(-n2c(=O)n(C3CC3)c(=O)c3c(Nc4ccc(I)cc4F)n(C)c(=O)c(C)c32)c1
viability, T/C (compound 0.0001 µM): 73.6% [middle of 5 runs]
viability, T/C (compound 0.000316 µM): 51.5% [middle of 5 runs]
viability, T/C (compound 0.001 µM): 28.9% [middle of 5 runs]
viability, T/C (compound 0.00316 µM): 17.8% [middle of 5 runs]
viability, T/C (compound 0.01 µM): 12.7% [middle of 5 runs]
viability, T/C (compound 0.0316 µM): 8.87% [middle of 4 runs]
IC50 (curve of compound): 0.328 nM [middle of 5 runs]

Cn1nccc1Nc1nccc(-c2cc3c(s2)C(C)(C)N(CCN2CCOCC2)C3=O)n1 + CC1OCC2(CCN(c3cnc(Sc4ccnc(N)c4Cl)c(N)n3)CC2)C1N
IC50 (curve of first compound, second compound 0.1 µM): 39.3 nM
IC50 (curve of first compound, second compound 0.316 µM): < 31.6 nM
IC50 (curve of first compound, second compound 1 µM): < 31.6 nM
IC50 (curve of first compound, second compound 3.16 µM): < 31.6 nM
IC50 (curve of first compound, second compound 10 µM): < 31.6 nM
viability, T/C (second compound 0.1 µM, first compound 0.0316 µM): 54.5%
viability, T/C (second compound 0.1 µM, first compound 0.1 µM): 30.8%
viability, T/C (second compound 0.1 µM, first compound 0.316 µM): 19.1%
viability, T/C (second compound 0.1 µM, first compound 1 µM): 11.7%
viability, T/C (second compound 0.1 µM, first compound 3.16 µM): 10.5%
viability, T/C (second compound 0.1 µM, first compound 10 µM): 11.7%
viability, T/C (second compound 0.316 µM, first compound 0.0316 µM): 37.1%
viability, T/C (second compound 0.316 µM, first compound 0.1 µM): 25.7%
viability, T/C (second compound 0.316 µM, first compound 0.316 µM): 12.6%
viability, T/C (second compound 0.316 µM, first compound 1 µM): 10.9%
viability, T/C (second compound 0.316 µM, first compound 3.16 µM): 8.88%
viability, T/C (second compound 0.316 µM, first compound 10 µM): 9.52%
viability, T/C (second compound 1 µM, first compound 0.0316 µM): 33.9%
viability, T/C (second compound 1 µM, first compound 0.1 µM): 21%
viability, T/C (second compound 1 µM, first compound 0.316 µM): 13.1%
viability, T/C (second compound 1 µM, first compound 1 µM): 9.76%
viability, T/C (second compound 1 µM, first compound 3.16 µM): 8.56%
viability, T/C (second compound 1 µM, first compound 10 µM): 9.6%
viability, T/C (second compound 3.16 µM, first compound 0.0316 µM): 26.3%
viability, T/C (second compound 3.16 µM, first compound 0.1 µM): 19.7%
viability, T/C (second compound 3.16 µM, first compound 0.316 µM): 12.6%
viability, T/C (second compound 3.16 µM, first compound 1 µM): 8.37%
viability, T/C (second compound 3.16 µM, first compound 3.16 µM): 8.01%
viability, T/C (second compound 3.16 µM, first compound 10 µM): 8.06%
viability, T/C (second compound 10 µM, first compound 0.0316 µM): 24.1%
viability, T/C (second compound 10 µM, first compound 0.1 µM): 17.6%
viability, T/C (second compound 10 µM, first compound 0.316 µM): 11%
viability, T/C (second compound 10 µM, first compound 1 µM): 8.12%
viability, T/C (second compound 10 µM, first compound 3.16 µM): 6.93%
viability, T/C (second compound 10 µM, first compound 10 µM): 7.35%
